Reference: PubChem BioAssay AID248 (DTP/NCI, 2004)
Toxic doses and inconclusive results are not listed.

Tested on: L1210 leukemia ip in BDF1 mice, survival T/C
Assay: NCI In Vivo Anticancer Drug Screen. Data for tumor model L1210 Leukemia (intraperitoneal) in B6D2F1 (BDF1) mice
Conditions: endpoint: mean survival time, higher = longer survival
Outline: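 Ratio derived from survival: compound-dosed mice over vehicle-dosed mice, all bearing a transplantable tumor.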

[1] = dose: 100.0 mg/kg/injection, schedule: Q01DX009 (ip), vehicle: saline with Tween-80
[2] = dose: 100.0 mg/kg/injection, schedule: Q04DX003 (ip), vehicle: saline with Tween-80
[3] = dose: 200.0 mg/kg/injection, schedule: Q01DX009 (ip), vehicle: saline with Tween-80
[4] = dose: 200.0 mg/kg/injection, schedule: Q04DX003 (ip), vehicle: saline with Tween-80
[5] = dose: 400.0 mg/kg/injection, schedule: Q04DX003 (ip), vehicle: saline with Tween-80
[6] = dose: 100.0 mg/kg/injection, schedule: Q04DX003 (ip), vehicle: Klucel (hydroxypropylcellulose) (HPC)
[7] = dose: 200.0 mg/kg/injection, schedule: Q04DX003 (ip), vehicle: Klucel (hydroxypropylcellulose) (HPC)
[8] = dose: 100.0 mg/kg/injection, schedule: Q01DX009 (ip), vehicle: saline
[9] = dose: 100.0 mg/kg/injection, schedule: Q04DX003 (ip), vehicle: saline
[10] = dose: 200.0 mg/kg/injection, schedule: Q01DX009 (ip), vehicle: saline
[11] = dose: 400.0 mg/kg/injection, schedule: Q01DX009 (ip), vehicle: saline
[12] = dose: 100.0 mg/kg/injection, schedule: Q04DX002 (ip), vehicle: Klucel (hydroxypropylcellulose) (HPC)
[13] = dose: 200.0 mg/kg/injection, schedule: Q04DX002 (ip), vehicle: Klucel (hydroxypropylcellulose) (HPC)
[14] = dose: 100.0 mg/kg/injection, schedule: Q01DX001 (ip), vehicle: saline
[15] = dose: 200.0 mg/kg/injection, schedule: Q01DX001 (ip), vehicle: saline
[16] = dose: 400.0 mg/kg/injection, schedule: Q01DX001 (ip), vehicle: saline
[17] = dose: 50.0 mg/kg/injection, schedule: Q04DX002 (ip), vehicle: Klucel (hydroxypropylcellulose) (HPC)
[18] = dose: 6.25 mg/kg/injection, schedule: Q01DX009 (ip), vehicle: Klucel (hydroxypropylcellulose) (HPC)

With `O=C(Nc1[nH]nc2nccnc12)C(F)(F)F` the T/C [1] was 97 % of control, the T/C [2] was 105 % of control and the T/C [3] was 92 % of control. The T/C [4] was 97 % of control, the T/C (dose: 400.0 mg/kg/injection, schedule: Q01DX009 (ip), vehicle: saline with Tween-80) was 103 % of control and the T/C [5] was 100 % of control.

`CSc1cccc(N2C(=O)CC(Sc3ccccc3N)C2=O)c1` (centres undefined) was tested, and the T/C (dose: 100.0 mg/kg/injection, schedule: Q01DX009 (ip), vehicle: Klucel (hydroxypropylcellulose) (HPC)) was 90 % of control, the T/C (dose: 200.0 mg/kg/injection, schedule: Q01DX009 (ip), vehicle: Klucel (hydroxypropylcellulose) (HPC)) was 95 % of control and the T/C (dose: 400.0 mg/kg/injection, schedule: Q01DX009 (ip), vehicle: Klucel (hydroxypropylcellulose) (HPC)) was 98 % of control.

With `CC1(C)N=C(N)Nc2nnc(-c3ccc(Cl)cc3)n21` the T/C [2] was 97 % of control, the T/C [4] was 97 % of control and the T/C [5] was 94 % of control.

In the case of `CC(=O)Nc1ccn(C2OC(COC(C)=O)C(OC3OC(COC(C)=O)C(OC(C)=O)C(OC(C)=O)C3OC(C)=O)C(OC(C)=O)C2OC(C)=O)c(=O)n1` (centres undefined), the T/C (dose: 22.5 mg/kg/injection, schedule: Q01DX001 (ip), vehicle: carboxymethylcellulose (CMC)) is reported as 103 % of control, the T/C (dose: 45.0 mg/kg/injection, schedule: Q01DX001 (ip), vehicle: carboxymethylcellulose (CMC)) is reported as 100 % of control and the T/C (dose: 90.0 mg/kg/injection, schedule: Q01DX001 (ip), vehicle: carboxymethylcellulose (CMC)) is reported as 100 % of control. For the same compound, the T/C (dose: 180.0 mg/kg/injection, schedule: Q01DX001 (ip), vehicle: carboxymethylcellulose (CMC)) was 100 % of control.

With `O=c1c(N=Nc2ccc(Br)cc2)c(O)n(-c2ccc(Cl)cc2)c(=S)n1-c1ccccc1` the T/C (dose: 37.5 mg/kg/injection, schedule: Q01DX001 (ip), vehicle: Klucel (hydroxypropylcellulose) (HPC)) was 107 % of control, the T/C (dose: 75.0 mg/kg/injection, schedule: Q01DX001 (ip), vehicle: Klucel (hydroxypropylcellulose) (HPC)) was 108 % of control and the T/C (dose: 150.0 mg/kg/injection, schedule: Q01DX001 (ip), vehicle: Klucel (hydroxypropylcellulose) (HPC)) was 104 % of control.

`CC(C)(C)C1CCC(C(=O)c2ccccc2)CC1` (centres undefined) was tested, and the T/C [2] was 100 % of control, the T/C [4] was 94 % of control and the T/C [5] was 89 % of control.

In the case of `C=CCS(=O)(=O)c1ccc(C)cc1`, the T/C [6] is reported as 102 % of control, the T/C [7] is reported as 100 % of control and the T/C (dose: 400.0 mg/kg/injection, schedule: Q04DX003 (ip), vehicle: Klucel (hydroxypropylcellulose) (HPC)) is reported as 100 % of control.

In the case of `CCCN1c2c(nc(N)[nH]c2=O)NCC1CNc1ccc(C(=O)NC(CCC(=O)O)C(=O)O)cc1` (centres undefined), the T/C [8] is reported as 96 % of control, the T/C [9] is reported as 108 % of control and the T/C [10] is reported as 101 % of control. The T/C (dose: 200.0 mg/kg/injection, schedule: Q04DX003 (ip), vehicle: saline) was 97 % of control, the T/C [11] was 96 % of control and the T/C (dose: 400.0 mg/kg/injection, schedule: Q04DX003 (ip), vehicle: saline) was 101 % of control.

With `NC(=O)c1ccn(C2OC(CO)C(O)C2O)n1` (centres undefined) the T/C (dose: 50.0 mg/kg/injection, schedule: Q01DX005 (ip), vehicle: water) was 105 % of control, the T/C (dose: 100.0 mg/kg/injection, schedule: Q01DX005 (ip), vehicle: water) was 102 % of control and the T/C (dose: 200.0 mg/kg/injection, schedule: Q01DX005 (ip), vehicle: water) was 102 % of control.

For `Cc1ccc(NC(=O)C(c2ccc(Cl)cc2)c2ccc(Cl)cc2)cc1`, the T/C [12] was 96 % of control, the T/C [13] was 100 % of control and the T/C (dose: 400.0 mg/kg/injection, schedule: Q04DX002 (ip), vehicle: Klucel (hydroxypropylcellulose) (HPC)) was 96 % of control.

For `Clc1ccc(CN2CCCN(C3CCCCC3)C2C2CCC=CO2)cc1` (centres undefined), the T/C [14] was 96 % of control.

`CN=C(C#N)c1ccc(OC)c(OC)c1` was tested, and the T/C (dose: 50.0 mg/kg/injection, schedule: Q01DX001 (ip), vehicle: saline) was 102 % of control, the T/C [14] was 96 % of control and the T/C [15] was 102 % of control. For the same compound, the T/C [16] was 102 % of control.

In the case of `C/C(=N\NC(=S)Nc1cc(Cl)ccc1Cl)c1ccc(O)c(C)c1`, the T/C (dose: 12.5 mg/kg/injection, schedule: Q04DX002 (ip), vehicle: Klucel (hydroxypropylcellulose) (HPC)) is reported as 102 % of control, the T/C (dose: 25.0 mg/kg/injection, schedule: Q04DX002 (ip), vehicle: Klucel (hydroxypropylcellulose) (HPC)) is reported as 102 % of control and the T/C [17] is reported as 105 % of control.

For `N#Cc1ccc(Br)cc1[N+](=O)[O-]`, the T/C [18] was 103 % of control, the T/C [6] was 89 % of control and the T/C [7] was 86 % of control.

For `CC1(C)N=C(N)N=C(N)N1c1cccc(OCCCOc2ccc(NC(=O)/C=C\C(=O)O)cc2)c1`, the T/C [14] was 102 % of control, the T/C [15] was 101 % of control and the T/C [16] was 102 % of control.

In the case of `CSc1nc2c(=O)[nH][nH]c(=O)c2n1Cc1ccccc1`, the T/C (dose: 100.0 mg/kg/injection, schedule: Q01DX001 (ip), vehicle: carboxymethylcellulose (CMC)) is reported as 92 % of control, the T/C (dose: 200.0 mg/kg/injection, schedule: Q01DX001 (ip), vehicle: carboxymethylcellulose (CMC)) is reported as 90 % of control and the T/C (dose: 400.0 mg/kg/injection, schedule: Q01DX001 (ip), vehicle: carboxymethylcellulose (CMC)) is reported as 95 % of control.

For `CC(=O)Nc1cccc(N)c1`, the T/C (dose: 25.0 mg/kg/injection, schedule: Q01DX009 (ip), vehicle: saline) was 95 % of control, the T/C (dose: 25.0 mg/kg/injection, schedule: Q04DX003 (ip), vehicle: saline) was 103 % of control and the T/C (dose: 50.0 mg/kg/injection, schedule: Q01DX009 (ip), vehicle: saline) was 108 % of control. For the same compound, the T/C (dose: 50.0 mg/kg/injection, schedule: Q04DX003 (ip), vehicle: saline) was 97 % of control, the T/C [8] was 101 % of control and the T/C [12] was 86 % of control. The T/C [9] was 94 % of control and the T/C [13] was 107 % of control.

For `CCOC(=O)Nc1cc2c(c(N)n1)N=C(CN(C)c1ccccc1)CN2`, the T/C (dose: 5.0 mg/kg/injection, schedule: Q01DX009 (ip), vehicle: Klucel (hydroxypropylcellulose) (HPC)) was 101 % of control, the T/C [18] was 116 % of control and the T/C (dose: 12.5 mg/kg/injection, schedule: Q01DX009 (ip), vehicle: Klucel (hydroxypropylcellulose) (HPC)) was 118 % of control. For the same compound, the T/C (dose: 15.0 mg/kg/injection, schedule: Q01DX009 (ip), vehicle: Klucel (hydroxypropylcellulose) (HPC)) was 98 % of control, the T/C (dose: 25.0 mg/kg/injection, schedule: Q01DX009 (ip), vehicle: Klucel (hydroxypropylcellulose) (HPC)) was 120 % of control and the T/C [17] was 196 % of control. For the same compound, the T/C [12] was 183 % of control and the T/C [13] was 96 % of control.

In the case of `CCCCCCCC(N)C(=O)O` (centres undefined), the T/C (dose: 100.0 mg/kg/injection, schedule: Q04DX002 (ip), vehicle: gum acacia) is reported as 95 % of control, the T/C (dose: 200.0 mg/kg/injection, schedule: Q04DX002 (ip), vehicle: gum acacia) is reported as 104 % of control and the T/C (dose: 400.0 mg/kg/injection, schedule: Q04DX002 (ip), vehicle: gum acacia) is reported as 88 % of control.

For `CC(C)=NNC(=O)c1ccc(N)cc1`, the T/C [1] was 91 % of control and the T/C [3] was 101 % of control.

In the case of `CC1(C)Cc2cc3cc(Cl)ccc3nc2-c2ccccc21`, the T/C [8] is reported as 102 % of control, the T/C (dose: 100.0 mg/kg/injection, schedule: Q04DX003 (ip), vehicle: acetone) is reported as 98 % of control and the T/C [10] is reported as 89 % of control. For the same compound, the T/C (dose: 200.0 mg/kg/injection, schedule: Q04DX003 (ip), vehicle: acetone) was 104 % of control, the T/C [11] was 100 % of control and the T/C (dose: 400.0 mg/kg/injection, schedule: Q04DX003 (ip), vehicle: acetone) was 94 % of control.

With `CCNC(=O)SCCSC(=O)NCC` the T/C (dose: 100.0 mg/kg/injection, schedule: Q01DX009 (ip), vehicle: other) was 92 % of control, the T/C (dose: 200.0 mg/kg/injection, schedule: Q01DX009 (ip), vehicle: other) was 93 % of control and the T/C (dose: 400.0 mg/kg/injection, schedule: Q01DX009 (ip), vehicle: other) was 92 % of control.

In the case of `CCOC(=O)C1CCC(C(=O)OCC)N1Cc1ccccc1` (centres undefined), the T/C [8] is reported as 101 % of control, the T/C [10] is reported as 104 % of control and the T/C [11] is reported as 108 % of control.

With `CC(C)(C)C[CH2][Hg][Cl]` the T/C (dose: 6.25 mg/kg/injection, schedule: Q04DX003 (ip), vehicle: Klucel (hydroxypropylcellulose) (HPC)) was 92 % of control and the T/C (dose: 12.5 mg/kg/injection, schedule: Q04DX003 (ip), vehicle: Klucel (hydroxypropylcellulose) (HPC)) was 94 % of control.
